{"source": "patent US20220079993A1", "about": "“NON-NATURALLY OCCURRING THERMOGENIC ADIPOCYTES, METHODS OF MAKING, AND METHODS OF USE THEREOF” (University of Georgia Research Foundation, Inc., priority 2019, published 2022)", "assay_type_in_all_cases": "cell-based, human", "key": {"beige adipocytes [1]": {"tested_on": "beige adipocytes", "assay": "Lipolysis validation assays of primary hits at three concentrations", "conditions": "Homo sapiens, Adipocyte, 24 h; for activity at 2.2 µM: Conc. 2.2 µM; for activity at 6.7 µM: Conc. 6.7 µM; for activity at 20 µM: Conc. 20 µM; for activity at 2200 µM: Conc. 2.2 mM", "summary_of_the_method": "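ADSC-derived adipocytes, differentiated 20 days, incubated in DMEM with 2% fatty-acid-free BSA and Triacsin C (5 μM). Glycerol release measured after 24 h compound treatment at three concentrations, normalised to untreated control as percent; 2-fold cut-offs defined activators and inhibitors.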"}, "GC [2]": {"tested_on": "GC", "assay": "Seahorse Mito Stress Test", "conditions": "forskolin 20 μM for 24 hours", "description": "FIG. 5A is a line graph showing the oxygen consumption rate from a Seahorse Mito Stress Test assay of GC compared to white adipocytes (WA). Cells were stimulated with forskolin (FSK, 20 uM) for 24 hours prior to treatment, and oligomycin (3 μM), FCCP (3 μM), and antimycin a/rotenone (5 μM) were added at indicated time points. n=9, where n is the number of independent replicates for each cell type/condition. Assay was normalized to total protein content. FIG. 5B is a line graph showing extracellular acidification rate from the assay in FIG. 5A. FIGS. 5C-5E are bar graphs showing basal respiration rate (5C) from the assay maximal respiration (5D) and proton leak (5E) calculated from assay performed in FIG. 5A. FIG. 5F is a bar graph showing the results of a lipolysis assay of ADSCs or GC (BA), treated with forskolin for indicated time period. FIG. 5G is a bar graph showing quantification of thermogenic dye assay of GC with or without forskolin treatment. […]\nTo perform the assay, ADSCs were plated on XFe24 plates (Agilent) at 5000 cell/cm^2 and grown to confluency. […] Following the assay, cells were lysed using RIPA buffer and protein concentration was determined by Bradford assay. Data was normalized by protein concentration and analyzed in Wave software (Agilent)."}, "beige adipocytes [3]": {"tested_on": "beige adipocytes", "assay": "High-throughput primary screen, lipolysis assay (glycerol release), 384-well", "conditions": "20 μM, 24 hours of drug treatment, vs untreated beige adipocytes", "description": "ADSCs were seeded at 5000 cell/cm^2 in 12-well plates, grown for 5 days and then induced to differentiate into GC for 20 days. […] Cells were treated with forskolin (20 μM) for indicated time periods and supernatant samples were collected. Lipolysis assay was performed with free glycerol reagent (Sigma, F6428-40ML), according to manufacturer instructions.\nADSCs were plated in 384-well plates at a density of 5000 cell/cm2 and grown to confluency over ˜4 days. Cells were then differentiated to beige adipocytes using B-8 medium for 21 days. All cell culture and incubations in the 384-well format were done at 37° C. and 5% CO2. […] The use of FDA-approved drugs may allow for re-purposing for therapeutic use.\nLipolysis assays were performed after 24 hours of drug treatment by measuring free glycerol released in the 384-well format, using the procedure described above. Absorbance for each compound was normalized to untreated control samples for each plate and calculated as a percent of the control. Cut-offs for “activating” and “inhibiting” compounds were set at 2-fold. Validation assays were performed for select compounds at a range of concentration doses."}, "GC [4]": {"tested_on": "GC", "assay": "Lipolysis assay (free glycerol) after forskolin", "description": "ADSCs were seeded at 5000 cell/cm^2 in 12-well plates, grown for 5 days and then induced to differentiate into GC for 20 days. Prior to the assay, cells were washed in DPBS twice and then incubated with DMEM with 2% fatty-acid free BSA (Santa Crus, sc-500949) and Triascin C (5 μM). Cells were treated with forskolin (20 μM) for indicated time periods and supernatant samples were collected. Lipolysis assay was performed with free glycerol reagent (Sigma, F6428-40ML), according to manufacturer instructions."}}, "note": "Where two headings read alike, the source gives them in different places.", "data": [{"smiles": "C=C[C@@]1(C)CC(=O)[C@]2(O)[C@@]3(C)[C@@H](O)CCC(C)(C)[C@@H]3[C@H](O)[C@H](OC(C)=O)[C@@]2(C)O1", "note": "[Forskolin]", "values": [{"measurement": "activity at 2.2 µM", "setting": "beige adipocytes [1]; read-out: % of Control (2)", "result": 394, "unit": "%"}, {"measurement": "activity at 2.2 µM", "setting": "beige adipocytes [1]; read-out: % of Control (4)", "result": 247, "unit": "%"}, {"measurement": "activity at 6.7 µM", "setting": "beige adipocytes [1]; read-out: % of Control (1)", "result": 311, "unit": "%"}, {"measurement": "activity at 6.7 µM", "setting": "beige adipocytes [1]; read-out: % of Control (2)", "result": 362, "unit": "%"}, {"measurement": "activity at 6.7 µM", "setting": "beige adipocytes [1]; read-out: % of Control (3)", "result": 241, "unit": "%"}, {"measurement": "activity at 6.7 µM", "setting": "beige adipocytes [1]; read-out: % of Control (4)", "result": 242, "unit": "%"}, {"measurement": "activity at 20 µM", "setting": "beige adipocytes [1]; read-out: % of Control (1)", "result": 417, "unit": "%"}, {"measurement": "activity at 20 µM", "setting": "beige adipocytes [1]; read-out: % of Control (2)", "result": 330, "unit": "%"}, {"measurement": "activity at 20 µM", "setting": "beige adipocytes [1]; read-out: % of Control (3)", "result": 253, "unit": "%"}, {"measurement": "activity at 20 µM", "setting": "beige adipocytes [1]; read-out: % of Control (4)", "result": 267, "unit": "%"}, {"measurement": "activity at 2200 µM", "setting": "beige adipocytes [1]; read-out: % of Control (1)", "result": 417, "unit": "%"}, {"measurement": "activity at 2200 µM", "setting": "beige adipocytes [1]; read-out: % of Control (3)", "result": 252, "unit": "%"}, {"measurement": "Elevation of uncoupled respiration (proton leak) relative to basal conditions", "setting": "GC [2]", "result": 64.7, "unit": "%"}, {"measurement": "% Control (relative levels of glycerol release)", "setting": "beige adipocytes [3]", "result": 262.31, "unit": "% control"}, {"measurement": "Increase in free glycerol in the media", "setting": "GC [4]; 4 hours of FSK (20 μM)", "result": "~2", "unit": "fold"}, {"measurement": "Increase in free glycerol in the media", "setting": "GC [4]; 8 hours of FSK (20 μM)", "result": "~5", "unit": "fold"}]}]}
